Source: ChEMBL document CHEMBL1909046, “DrugMatrix in vitro pharmacology data”

What was measured:
[1] = DRUGMATRIX: Tumor Necrosis Factor (TNF), Non-Selective radioligand binding (ligand: [125I] TNF-alpha); format: cell membranes, Membrane; settings: u-937; Not Active = under 50% inhibition at 10 µM
[2] = molecular target: Epidermal growth factor receptor (Homo sapiens, UniProt P00533); assay: DRUGMATRIX: Protein Tyrosine Kinase, EGF Receptor enzyme inhibition (substrate: Poly(Glu:Tyr)); format: cell-based, Insect cells; settings: Not Active = under 50% inhibition at 10 µM
[3] = molecular target: Mitogen-activated protein kinase 3 (Homo sapiens, UniProt P27361); assay: DRUGMATRIX: Protein Serine/Threonine Kinase, ERK1 enzyme inhibition (substrate: Myelin Basic Protein); parameters: species or system Escherichia coli; settings: Not Active = under 50% inhibition at 10 µM
Histamine H2 receptor = Histamine H2 receptor (Homo sapiens, UniProt P25021); format: cell membranes, CHO-K1, Membrane; settings: cho-k1; further: in other assays of this panel Not Active means under 50% inhibition at 10 µM
[4] = molecular target: 5-hydroxytryptamine receptor 1B (Rattus norvegicus, UniProt P28564); format: cell membranes, Wistar, Cerebral cortex, Membrane; further: in other assays of this panel Not Active means under 50% inhibition at 10 µM
Cytochrome P450 3A4 = Cytochrome P450 3A4 (Homo sapiens, UniProt P08684); settings: bti-tn-5b1-4; further: in other assays of this panel Not Active means under 50% inhibition at 10 µM
Cytochrome P450 3A4, sequence (P08684 whole entry): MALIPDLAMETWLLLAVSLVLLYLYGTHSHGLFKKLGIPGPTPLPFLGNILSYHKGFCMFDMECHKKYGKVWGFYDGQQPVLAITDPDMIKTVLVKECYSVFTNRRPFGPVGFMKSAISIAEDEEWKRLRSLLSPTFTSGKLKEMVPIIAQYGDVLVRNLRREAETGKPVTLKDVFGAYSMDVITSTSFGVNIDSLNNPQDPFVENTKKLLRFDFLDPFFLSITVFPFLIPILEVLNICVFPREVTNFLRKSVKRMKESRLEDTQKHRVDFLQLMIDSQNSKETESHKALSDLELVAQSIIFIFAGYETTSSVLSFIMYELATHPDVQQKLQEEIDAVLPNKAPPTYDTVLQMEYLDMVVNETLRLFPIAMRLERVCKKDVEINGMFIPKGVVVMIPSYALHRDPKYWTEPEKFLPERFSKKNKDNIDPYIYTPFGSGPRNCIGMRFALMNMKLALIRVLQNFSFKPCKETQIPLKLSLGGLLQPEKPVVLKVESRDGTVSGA

Histamine H2 receptor, sequence (P25021 whole entry): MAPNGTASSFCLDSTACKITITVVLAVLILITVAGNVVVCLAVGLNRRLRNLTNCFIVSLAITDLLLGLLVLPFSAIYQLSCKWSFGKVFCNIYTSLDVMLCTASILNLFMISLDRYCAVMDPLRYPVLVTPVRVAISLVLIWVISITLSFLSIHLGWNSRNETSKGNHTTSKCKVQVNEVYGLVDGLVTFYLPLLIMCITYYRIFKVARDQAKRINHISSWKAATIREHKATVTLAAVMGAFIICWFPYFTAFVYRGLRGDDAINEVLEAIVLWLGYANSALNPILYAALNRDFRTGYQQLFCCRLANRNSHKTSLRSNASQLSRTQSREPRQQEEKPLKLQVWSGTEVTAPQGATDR
5-hydroxytryptamine receptor 1B, sequence (P28564 whole entry): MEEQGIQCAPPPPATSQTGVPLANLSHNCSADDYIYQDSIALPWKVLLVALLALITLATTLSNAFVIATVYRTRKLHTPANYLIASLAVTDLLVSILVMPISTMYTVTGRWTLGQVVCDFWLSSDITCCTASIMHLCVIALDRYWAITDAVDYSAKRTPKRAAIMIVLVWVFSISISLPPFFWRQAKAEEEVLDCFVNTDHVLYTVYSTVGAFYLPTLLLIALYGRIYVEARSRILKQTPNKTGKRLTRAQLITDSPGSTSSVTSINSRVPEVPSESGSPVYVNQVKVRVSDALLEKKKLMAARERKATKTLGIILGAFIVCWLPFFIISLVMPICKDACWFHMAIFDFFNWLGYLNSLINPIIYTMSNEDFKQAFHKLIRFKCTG
Mitogen-activated protein kinase 3, sequence (P27361 whole entry): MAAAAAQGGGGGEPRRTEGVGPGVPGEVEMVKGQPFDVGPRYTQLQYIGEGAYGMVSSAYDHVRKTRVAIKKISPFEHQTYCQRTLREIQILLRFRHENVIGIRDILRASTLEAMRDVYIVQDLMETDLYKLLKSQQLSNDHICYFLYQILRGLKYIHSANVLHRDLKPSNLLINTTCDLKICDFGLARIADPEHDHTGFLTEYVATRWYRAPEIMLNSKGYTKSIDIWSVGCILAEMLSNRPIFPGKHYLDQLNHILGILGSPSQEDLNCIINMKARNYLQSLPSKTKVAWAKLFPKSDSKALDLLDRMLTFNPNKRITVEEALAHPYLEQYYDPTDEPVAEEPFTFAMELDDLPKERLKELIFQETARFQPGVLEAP

Molecule	IC50 [1]	Ki [1]	IC50 ([2]; insect cells)	IC50 [3]	IC50 (Histamine H2 receptor)	IC50 [4]	IC50 (Cytochrome P450 3A4)	Ki (Cytochrome P450 3A4)	IC50 ([2]; read-out: IC50) [µM]	Ki ([2]; insect cells)	Ki [3]	Ki (Histamine H2 receptor)	Ki [4]	IC50 ([4]; read-out: IC50) [µM]	Ki ([4]; read-out: Ki) [µM]
O=C(Oc1ccccc1C(=O)O)c1ccccc1O [SALSALATE]	Not Active	Not Active	Not Active	Not Active	Not Active	Not Active	Not Active	Not Active	–	–	–	–	–	–	–
CNC1(c2ccccc2Cl)CCCCC1=O (configuration not stated) [KETAMINE]	Not Active	Not Active	Not Active	Not Active	Not Active	Not Active	Not Active	Not Active	–	–	–	–	–	–	–
Fc1ccc(C(c2ccc(F)cc2)N2CCN(C/C=C/c3ccccc3)CC2)cc1 [FLUNARIZINE]	–	–	Not Active	Not Active	Not Active	Not Active	Not Active	Not Active	–	–	–	–	–	–	–
CN[C@H]1CC[C@@H](c2ccc(Cl)c(Cl)c2)c2ccccc21 [SERTRALINE]	–	–	Not Active	Not Active	Not Active	Not Active	Not Active	Not Active	–	–	–	–	–	–	–
O=C(Nc1ccc(Br)cc1)c1cc(Br)cc(Br)c1O [TRIBROMSALAN]	Not Active	Not Active	–	Not Active	Not Active	Not Active	Not Active	Not Active	2.99	–	–	–	–	–	–
CC(C)NCC(O)c1ccc(O)c(O)c1 (configuration not stated) [ISOPROTERENOL]	Not Active	Not Active	Not Active	Not Active	Not Active	Not Active	Not Active	Not Active	–	–	–	–	–	–	–
Cc1cccc(C)c1OCC(C)N (configuration not stated) [MEXILETINE]	Not Active	Not Active	Not Active	Not Active	Not Active	Not Active	Not Active	Not Active	–	–	–	–	–	–	–
MANGANESE CHLORIDE ANHYDROUS	Not Active	Not Active	Not Active	Not Active	Not Active	Not Active	Not Active	Not Active	–	Not Active	Not Active	Not Active	Not Active	–	–
CCN(CC)CCNC(=O)c1cc(S(C)(=O)=O)ccc1OC [TIAPRIDE]	Not Active	Not Active	Not Active	Not Active	Not Active	Not Active	Not Active	Not Active	–	–	–	–	–	–	–
Clc1ccc(COC(Cn2ccnc2)c2ccc(Cl)cc2Cl)cc1 (configuration not stated) [ECONAZOLE]	–	–	–	Not Active	–	–	–	–	32.4	–	–	–	–	22	10
COc1c2occc2cc2ccc(=O)oc12 [METHOXSALEN]	Not Active	Not Active	Not Active	Not Active	Not Active	Not Active	Not Active	Not Active	–	–	–	–	–	–	–
O.O.O.O.O.O.[Cl-].[Cl-].[Sr+2] [STRONTIUM CHLORIDE HEXAHYDRATE]	Not Active	Not Active	Not Active	Not Active	Not Active	Not Active	Not Active	Not Active	–	–	–	–	–	–	–
COc1ccc(CCN(C)CCCC(C#N)(c2ccc(OC)c(OC)c2)C(C)C)cc1OC (configuration not stated)	Not Active	Not Active	Not Active	Not Active	–	Not Active	Not Active	Not Active	–	–	–	–	–	–	–
CCN(CC)CCOc1ccc(/C(=C(/Cl)c2ccccc2)c2ccccc2)cc1 [ENCLOMIPHENE]	–	–	–	Not Active	Not Active	Not Active	Not Active	Not Active	1.05	–	–	–	–	–	–
Clc1ccccc1CN1CCc2sccc2C1 [TICLOPIDINE]	Not Active	Not Active	Not Active	Not Active	Not Active	Not Active	Not Active	Not Active	–	–	–	–	–	–	–
CC(C)Oc1ccc2c(=O)c(-c3ccccc3)coc2c1 [IPRIFLAVONE]	Not Active	Not Active	Not Active	Not Active	Not Active	Not Active	Not Active	Not Active	–	–	–	–	–	–	–
COc1cc2nc(N3CCN(C(=O)C4CCCO4)CC3)nc(N)c2cc1OC (configuration not stated) [TERAZOSIN]	Not Active	Not Active	Not Active	Not Active	Not Active	Not Active	–	–	–	–	–	–	–	–	–
